Experimental data: paper PMC11643516, “Design, Synthesis, Structural Insights, Tyrosinase Inhibition, and Sun Protection Factor of New Thiosemicarbazone Derivatives” (Molecules, 2024)
Counter-ions that a name gives are not always drawn. Like-named read-outs stand apart in the source and are kept apart here.

Experiments:
[1] = target: Tyrosinase; settings: L-DOPA as substrate, read-out: Tyrosinase Inhibitory Activity IC50, cited from earlier work
[2] = test system: B16 melanoma cells; set-up: method as in PMID 20863702; settings: read-out: Anti-Melanogenesis Activity IC50; cited from earlier work
[3] = target: mushroom tyrosinase; assay: Mushroom tyrosinase inhibition assay (L-DOPA, dopachrome formation at 492 nm); assay type: biochemical; settings: L-DOPA substrate, pH 6.8, 37 °C; mean ± SD of triplicate experiments; read-out: IC50 against mushroom tyrosinase activity
Protocol: Mushroom Tyr inhibition was assessed as described previously with minor modifications. […] L-DOPA was then added and the dopachrome formation was monitored at 492 nm. The measurements were taken using a FLUOstar OPTIMA (BMG Labtech, Offenburg, Germany). The IC50 value was determined by analysing dose–response curves.

[4] = ABTS radical scavenging assay; settings: 734 nm after 1 min of incubation; mean ± SD of triplicate
Protocol: Samples of each compound (10 µL) were added to 990 µL of ABTS, and the reduction in the blue-green radical ABTS^+• by hydrogen-donating antioxidants was evaluated by measuring the absorbance at 734 nm after 1 min of incubation. All the measurements were carried out at least three times.

[5] = DPPH radical scavenging assay; settings: 0.1 mM DPPH, 30 min in the dark, 517 nm; mean ± SD of triplicate
Protocol: Radical scavenging activity of the thiosemicarbazone derivatives was estimated according to the previously reported method with slight modification using the stable DPPH radical. A solution of 0.1 mM DPPH radical was added to various concentrations of the compounds. The absorbance of the DPPH radical without an antioxidant, i.e., blank, was also measured. The mixture was shaken vigorously and kept at room temperature for 30 min in the dark. The absorbance of the reaction mixture was measured at 517 nm spectrophotometrically. All the determinations were performed in triplicate.

Row | Structure (SMILES) | melting point [°C] | IC50 [3] [µM] | ABTS (% I ± SD), percentage of inhibition of free radicals [4] [%] | DPPH (% I ± SD), percentage of inhibition of free radicals [5] [%] | also measured
1 | NC(=S)N/N=C/c1ccc(OS(=O)(=O)c2ccccc2)cc1 (as salt: benzenesulfonate) [TCBS1, (E)-4-((2-carbamothioylhydrazineylidene)methyl)phenyl benzenesulfonate] | 159 to 160 |  |  |  | 
2 | NC(=S)N/N=C/c1ccc(OS(=O)(=O)c2ccc([N+](=O)[O-])cc2)cc1 (as salt: benzenesulfonate) [TCBS2, (E)-4-((2-carbamothioylhydrazineylidene)methyl)phenyl 4-nitrolbenzenesulfonate] | 226 to 228 |  |  |  | 
3 | NC(=S)N/N=C/c1ccc(OS(=O)(=O)c2ccc(Cl)cc2)cc1 (as salt: benzenesulfonate) [TCBS5, (E)-4-((2-carbamothioylhydrazineylidene)methyl)phenyl 4-chlorobenzenesulfonate] | 194 to 196 |  |  |  | 
4 | NC(=S)N/N=C/c1ccc(Cl)cc1 [Compound 1] |  |  |  |  | IC50 ([1]; ref 17): 0.84 µM; IC50 ([1]; ref 18): 1.9 µM
5 | COc1ccc(/C=N/NC(N)=S)cc1 [Compound 2] |  |  |  |  | IC50 ([1]; ref 17): 0.44 µM; IC50 ([1]; ref 20): 1.48 µM
6 | NC(=S)N/N=C/c1ccc([N+](=O)[O-])cc1 [Compound 3] |  |  |  |  | IC50 ([1]; ref 19): 1.9 µM
7 | NC(=S)N/N=C/c1ccccc1 [Compound 4] |  |  |  |  | IC50 [2]: > 10 µM
8 | NC(=S)N/N=C/c1cccc2ccccc12 [Compound 5] |  |  |  |  | IC50 [2]: 1.1 µM
9 | NC(=S)N/N=C/c1ccncc1 [Compound 6] |  |  |  |  | IC50 [2]: > 30 µM
10 | NC(=S)N/N=C/c1ccc(OS(=O)(=O)c2ccccc2)cc1 [TCBS1, (E)-4-((2-carbamothioylhydrazineylidene)methyl)phenyl benzenesulfonate] |  | 0.44 ± 0.03 | 39 ± 1 | 26 ± 2 | 
11 | NC(=S)N/N=C/c1ccc(OS(=O)(=O)c2ccc([N+](=O)[O-])cc2)cc1 [TCBS2, (E)-4-((2-carbamothioylhydrazineylidene)methyl)phenyl 4-nitrolbenzenesulfonate] |  | 0.66 ± 0.05 | 25 ± 4 | 16 ± 2 | 
12 | COc1ccc(S(=O)(=O)Oc2ccc(/C=N/NC(N)=S)cc2)cc1 [TCBS3, (E)-4-((2-carbamothioylhydrazineylidene)methyl)phenyl 4-methoxylbenzenesulfonate] | 154 to 156 | 0.44 ± 0.01 | 35 ± 1 | 33 ± 4 | 
13 | Cc1ccc(S(=O)(=O)Oc2ccc(/C=N/NC(N)=S)cc2)cc1 [TCBS4, (E)-4-((2-carbamothioylhydrazineylidene)methyl)phenyl 4-methylbenzenesulfonate] | 195 to 197 | 0.44 ± 0.01 | 30 ± 2 | 20 ± 1 | 
14 | NC(=S)N/N=C/c1ccc(OS(=O)(=O)c2ccc(Cl)cc2)cc1 [TCBS5, (E)-4-((2-carbamothioylhydrazineylidene)methyl)phenyl 4-chlorobenzenesulfonate] |  | 0.71 ± 0.02 | 22 ± 2 | 32 ± 5 | 
15 | CS(=O)(=O)Oc1ccc(/C=N/NC(N)=S)cc1 [TCMS1, (E)-4-((2-carbamothioylhydrazineylidene)methyl)phenyl methanesulfonate] | 224 to 226 | 1.6 ± 0.02 | 42 ± 4 | 20 ± 2 | 
